Test results: patent publication US7195788B2, “Pesticidal compositions from prunus” (Premier Botanicals, Ltd., priority 2001, dated 2007)
Several values for one entry are separate records, joined by “and”; a condition that tells them apart may be missing. Equal entries are not always repeated.

Key:
Cytospora chrysosperma = assay: In vitro mycelia growth of Cytospora chrysosperma on potato dextrose agar containing the test material; format: cell-based; details: 23° C.
Method: The effectiveness of Prunus compositions was compared to the effectiveness of synthetic benzaldehyde in stopping or restricting the growth of the Cytospora fungus on potato dextrose agar. The volatile compounds of a Prunus virginiana hydrodistillate were concentrated by counter-flow flash evaporation (i.e. collected from vessel 122 as shown in FIG. 2) to provide a concentrated extract that was further processed by distillation to remove hydrocyanic acid. The resulting extract was analyzed and found to contain 1.2% trans-2-hexenal, 98.5% benzaldehyde, and traces of other compounds originally in the hydrodistillate. This extract was reconstituted in distilled water to provide a solution containing approximately 10,000 ppm of Prunus volatiles. This stock solution was used to prepare a series of agar solutions containing between 0 and 10,000 ppm Prunus volatiles. The Prunus material was blended into the agar after autoclaving and prior to pouring the agar into Petri plates. […] All plates were inoculated with a 5-mm potato dextrose agar plug from a two-week-old culture of C. chrysosperma.

Uncinula necator = assay: Powdery mildew development on 'Pinot Noir' grape leaves after spray treatment; format: in vivo; details: for Powdery mildew disease rating on grape leaves, per repetition: scale 1 = no symptoms, 5 = 100% infected, Prunus 1 crude, Prunus 2 and SB at 1000 ppm, repetitions 1-3
Method: Prunus compositions (including crude Prunus virginiana hydrodistillate, collected in vessel 112 of FIG. 2, having the analysis of the first entry of Table 1) were tested on grape plants (Pinot Noir) infected with powdery mildew. The experiment was set up in a complete randomized block design with three repetition, four treatments each, with three observations per treatment. Treatments were as follows: Prunus 1: crude hydrodistillate from Prunus biomass, Prunus 2: benzaldehyde separated from the hydrodistillate at 1,000 ppm, SB-synthetic benzaldehyde, and control-distilled water.
Treatments were applied to infected leaves in early August and in early September. Three adjacent leaves on a vine were sprayed with each treatment and replicated on three different vines (plants). The solutions were applied with a mist sprayer until run off. The first disease reading was obtained in early September, one month after the first treatment application. The second disease reading was obtained in early October, about one month after the second treatment application.
Disease ratings were based on a scale of 1 to 5, with 1 indicating no symptoms and 5 indicating 100-percent infected. The results are summarized in Table 5, in which each datum is a mean value of the three observations for each treatment made on the two dates disease readings were obtained. […] The crude hydrodistillate composition contained all of the volatile chemicals identified above in Example 1. The increased fungicidal action of the crude hydrodistillate indicated synergistic action of the Prunus volatiles relative to purified or synthetic benzaldehyde.

Sphaerotheca pannosa = assay: Powdery mildew development on rose leaves after spray treatment; format: in vivo; details: for Powdery mildew disease rating on rose leaves, per repetition: scale 1 = no symptoms, 5 = 100% infection, Prunus 1 crude, Prunus 2 and SB at 1000 ppm, repetitions 1-3
Method: Prunus compositions (including crude Prunus virginiana hydrodistillate, collected in vessel 112 of FIG. 2, having the SPME determined composition of the first entry in Table 1) were tested on diseased plants and were evaluated as a fungicide for controlling Rose powdery mildew. The experiment was set up in a complete randomized block design with three repetitions and four treatments. Treatments were as follows: Prunus 1: crude hydrodistillate from Prunus biomass, Prunus 2: benzaldehyde separated from the crude hydrodistillate at 1,000 ppm, SB-synthetic benzaldehyde, and control-distilled water.
Treatments were applied to infected leaves twice (one week apart) in late July, and once in late August. All leaves were covered with mildew mycelia at the time of the first treatment. One compound leaf was treated with each treatment. Leaves from different stems were treated for each of the three repetition. The treatments were applied with a mist sprayer until run off. Disease development was rated on a scale of 1 to 5, where 1 indicated no symptoms and 5 indicated 100-percent infected. The first disease rating was obtained at the time of the late August treatment, followed by a second disease rating in early September. […] The crude distillate from the Prunus biomass was effective in eliminating or inhibiting the growth of the fungus on the rose leaves. […] The crude hydrodistillate containing all of the volatile compounds identified in Example 1 appeared to act synergistically, relative to purified or synthetic benzaldehyde, to control the rose mildew fungus.

Compound: O=Cc1ccccc1 [SB, benzaldehyde]
- Mycelial Growth (radial) (Cytospora chrysosperma; 25 ppm in PDA, 1 day after treatment): 0.0 cm
- Mycelial Growth (radial) (Cytospora chrysosperma; 25 ppm in PDA, 2 days after treatment): 1.2 cm
- Mycelial Growth (radial) (Cytospora chrysosperma; 25 ppm in PDA, 3 days after treatment): 2.8 cm
- Mycelial Growth (radial) (Cytospora chrysosperma; 25 ppm in PDA, 4 days after treatment): 3.8 cm
- Mycelial Growth (radial) (Cytospora chrysosperma; 25 ppm in PDA, 5 days after treatment): 4.1 cm
- Mycelial Growth (radial) (Cytospora chrysosperma; 25 ppm in PDA, 6 days after treatment): 4.1 cm
- Mycelial Growth (radial) (Cytospora chrysosperma; 25 ppm in PDA, 7 days after treatment): 4.1 cm
- Mycelial Growth (radial) (Cytospora chrysosperma; 25 ppm in PDA, 14 days after treatment): 4.1 cm
- Mycelial Growth (radial) (Cytospora chrysosperma; 50 ppm in PDA, 1 day after treatment): 0.0 cm
- Mycelial Growth (radial) (Cytospora chrysosperma; 50 ppm in PDA, 2 days after treatment): 1.1 cm
- Mycelial Growth (radial) (Cytospora chrysosperma; 50 ppm in PDA, 3 days after treatment): 2.6 cm
- Mycelial Growth (radial) (Cytospora chrysosperma; 50 ppm in PDA, 4 days after treatment): 3.1 cm
- Mycelial Growth (radial) (Cytospora chrysosperma; 50 ppm in PDA, 5 days after treatment): 4.0 cm
- Mycelial Growth (radial) (Cytospora chrysosperma; 50 ppm in PDA, 6 days after treatment): 4.1 cm
- Mycelial Growth (radial) (Cytospora chrysosperma; 50 ppm in PDA, 7 days after treatment): 4.1 cm
- Mycelial Growth (radial) (Cytospora chrysosperma; 50 ppm in PDA, 14 days after treatment): 4.1 cm
- Mycelial Growth (radial) (Cytospora chrysosperma; 100 ppm in PDA, 1 day after treatment): 0.0 cm
- Mycelial Growth (radial) (Cytospora chrysosperma; 100 ppm in PDA, 2 days after treatment): 1.2 cm
- Mycelial Growth (radial) (Cytospora chrysosperma; 100 ppm in PDA, 3 days after treatment): 2.7 cm
- Mycelial Growth (radial) (Cytospora chrysosperma; 100 ppm in PDA, 4 days after treatment): 3.5 cm
- Mycelial Growth (radial) (Cytospora chrysosperma; 100 ppm in PDA, 5 days after treatment): 4.1 cm
- Mycelial Growth (radial) (Cytospora chrysosperma; 100 ppm in PDA, 6 days after treatment): 4.1 cm
- Mycelial Growth (radial) (Cytospora chrysosperma; 100 ppm in PDA, 7 days after treatment): 4.1 cm
- Mycelial Growth (radial) (Cytospora chrysosperma; 100 ppm in PDA, 14 days after treatment): 4.1 cm
- Mycelial Growth (radial) (Cytospora chrysosperma; 500 ppm in PDA, 1 day after treatment): 0.0 cm
- Mycelial Growth (radial) (Cytospora chrysosperma; 500 ppm in PDA, 2 days after treatment): 0.9 cm
- Mycelial Growth (radial) (Cytospora chrysosperma; 500 ppm in PDA, 3 days after treatment): 2.3 cm
- Mycelial Growth (radial) (Cytospora chrysosperma; 500 ppm in PDA, 4 days after treatment): 3.1 cm
- Mycelial Growth (radial) (Cytospora chrysosperma; 500 ppm in PDA, 5 days after treatment): 4.0 cm
- Mycelial Growth (radial) (Cytospora chrysosperma; 500 ppm in PDA, 6 days after treatment): 4.0 cm
- Mycelial Growth (radial) (Cytospora chrysosperma; 500 ppm in PDA, 7 days after treatment): 4.1 cm
- Mycelial Growth (radial) (Cytospora chrysosperma; 500 ppm in PDA, 14 days after treatment): 4.1 cm
- Mycelial Growth (radial) (Cytospora chrysosperma; 1,000 ppm in PDA, 1 day after treatment): 0.0 cm
- Mycelial Growth (radial) (Cytospora chrysosperma; 1,000 ppm in PDA, 2 days after treatment): 0.7 cm
- Mycelial Growth (radial) (Cytospora chrysosperma; 1,000 ppm in PDA, 3 days after treatment): 1.6 cm
- Mycelial Growth (radial) (Cytospora chrysosperma; 1,000 ppm in PDA, 4 days after treatment): 2.2 cm
- Mycelial Growth (radial) (Cytospora chrysosperma; 1,000 ppm in PDA, 5 days after treatment): 3.3 cm
- Mycelial Growth (radial) (Cytospora chrysosperma; 1,000 ppm in PDA, 6 days after treatment): 4.0 cm
- Mycelial Growth (radial) (Cytospora chrysosperma; 1,000 ppm in PDA, 7 days after treatment): 4.1 cm
- Mycelial Growth (radial) (Cytospora chrysosperma; 1,000 ppm in PDA, 14 days after treatment): 4.1 cm
- Mycelial Growth (radial) (Cytospora chrysosperma; 5,000 ppm in PDA, 1 day after treatment): 0.0 cm
- Mycelial Growth (radial) (Cytospora chrysosperma; 5,000 ppm in PDA, 2 days after treatment): 0.0 cm
- Mycelial Growth (radial) (Cytospora chrysosperma; 5,000 ppm in PDA, 3 days after treatment): 0.0 cm
- Mycelial Growth (radial) (Cytospora chrysosperma; 5,000 ppm in PDA, 4 days after treatment): 0.0 cm
- Mycelial Growth (radial) (Cytospora chrysosperma; 5,000 ppm in PDA, 5 days after treatment): 0.0 cm
- Mycelial Growth (radial) (Cytospora chrysosperma; 5,000 ppm in PDA, 6 days after treatment): 0.1 cm
- Mycelial Growth (radial) (Cytospora chrysosperma; 5,000 ppm in PDA, 7 days after treatment): 0.3 cm
- Mycelial Growth (radial) (Cytospora chrysosperma; 5,000 ppm in PDA, 14 days after treatment): 0.0 cm
- Mycelial Growth (radial) (Cytospora chrysosperma; 10,000 ppm in PDA, 1 day after treatment): 0.0 cm
- Mycelial Growth (radial) (Cytospora chrysosperma; 10,000 ppm in PDA, 2 days after treatment): 0.0 cm
- Mycelial Growth (radial) (Cytospora chrysosperma; 10,000 ppm in PDA, 3 days after treatment): 0.0 cm
- Mycelial Growth (radial) (Cytospora chrysosperma; 10,000 ppm in PDA, 4 days after treatment): 0.0 cm
- Mycelial Growth (radial) (Cytospora chrysosperma; 10,000 ppm in PDA, 5 days after treatment): 0.0 cm
- Mycelial Growth (radial) (Cytospora chrysosperma; 10,000 ppm in PDA, 6 days after treatment): 0.0 cm
- Mycelial Growth (radial) (Cytospora chrysosperma; 10,000 ppm in PDA, 7 days after treatment): 0.0 cm
- Mycelial Growth (radial) (Cytospora chrysosperma; 10,000 ppm in PDA, 14 days after treatment): 0.0 cm
- Powdery mildew disease rating on grape leaves, per repetition (Uncinula necator; reading 9/7, one month after first spray): 2 and 1
- Powdery mildew disease rating on grape leaves, per repetition (Uncinula necator; reading 10/5, about one month after second spray): 3
- Control of grape powdery mildew (in words) (Uncinula necator; spray on infected Pinot Noir leaves, up to second reading): reduced the spread of the mildew fungus, but did not control it
- Powdery mildew disease rating on rose leaves, per repetition (Sphaerotheca pannosa; reading 8/22): 3 and 2
- Powdery mildew disease rating on rose leaves, per repetition (Sphaerotheca pannosa; reading 9/4): 3 and 2
- Control of rose powdery mildew (in words) (Sphaerotheca pannosa; spray on infected rose leaves): less effective in removing the fungus from the infected rose leaves
